Test results as given in the NIST ThermoML archive (doi:10.1021/je050005h).

Experiment: xn = mol fraction of the nth substance listed
Conditions: 101 kPa, Liquid

C1CCNCC1 [piperidine] + O
Conditions | kinematic viscosity, 293.15 K [m2/s] | kinematic viscosity, 303.15 K [m2/s] | kinematic viscosity, 313.15 K [m2/s] | kinematic viscosity, 323.15 K [m2/s] | mass density, 293.15 K [kg/m3] | mass density, 303.15 K [kg/m3] | mass density, 313.15 K [kg/m3] | mass density, 323.15 K [kg/m3]
x1 = 0.0055 | 1.11e-06 | 8.82e-07 | 7.18e-07 | 5.98e-07 | 997.07 | 994.34 | 990.68 | 986.17
x1 = 0.011 | 1.21e-06 | 9.53e-07 | 7.72e-07 | 6.36e-07 | 995.89 | 992.89 | 989.03 | 984.42
x1 = 0.028 | 1.5e-06 | 1.2e-06 | 9.42e-07 | 8.12e-07 | 992.43 | 987.87 | 982.66 | 976.92
x1 = 0.0573 | 2.2e-06 | 1.74e-06 | 1.33e-06 | 1.07e-06 | 985.56 | 979.56 | 973.25 | 966.6
x1 = 0.0986 | 3.55e-06 | 2.55e-06 | 1.88e-06 | 1.47e-06 | 974.58 | 967.57 | 960.35 | 952.86
x1 = 0.1795 | 5.94e-06 | 4.01e-06 | 2.81e-06 | 2.14e-06 | 955.67 | 947.6 | 939.32 | 930.84
x1 = 0.2672 | 7.62e-06 | 5.06e-06 | 3.48e-06 | 2.62e-06 | 940.18 | 931.55 | 922.71 | 913.66
x1 = 0.3536 | 8.02e-06 | 5.42e-06 | 3.71e-06 | 2.68e-06 | 927.85 | 918.89 | 909.73 | 900.37
x1 = 0.4387 | 7.04e-06 | 4.97e-06 | 3.49e-06 | 2.53e-06 | 917.5 | 908 | 899 | 889
x1 = 0.5225 | 6.09e-06 | 4.37e-06 | 3.1e-06 | 2.31e-06 | 906.51 | 897.28 | 887.84 | 878.22
x1 = 0.6458 | 4.49e-06 | 3.22e-06 | 2.33e-06 | 1.83e-06 | 892.99 | 883.65 | 874.16 | 864.51
x1 = 0.8454 | – | – | – | – | 875.08 | 865.74 | 856.27 | 846.67
x1 = 0.8455 | 2.6e-06 | 2e-06 | 1.62e-06 | 1.31e-06 | – | – | – | –
x1 = 1 | 1.79e-06 | 1.49e-06 | 1.25e-06 | 1.06e-06 | 863.81 | 854.5 | 845.08 | 835.56

O [water] + C1CCNC1
x2 = 0
Conditions | kinematic viscosity [m2/s] | mass density [kg/m3]
293.15 K | 9.9e-07 | –
303.15 K | 8.1e-07 | –
313.15 K | 6.66e-07 | –
323.15 K | 5.61e-07 | 988.02
